According to ChEMBL document CHEMBL1201862, “PubChem BioAssay data set” (2004):
The source made the active and inactive calls.

Assays:
Fatty acid synthase [1] = biological target: T1, Fatty acid synthase (Homo sapiens, UniProt P49327); assay: inhibition of human FAS-TE enzyme activity – biochemical, endpoint fluorescence intensity, uHTS hits, dose response (AID 624327); assay type: functional;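 further: fluorescence from hydrolysis of an O-methyl fluorescein acyl ester substrate by the enzyme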
Fatty acid synthase [2] = biological target: T1, Fatty acid synthase; assay: inhibition of human FAS-TE enzyme activity – biochemical, kinetic fluorescence intensity, dose response (AID 624326); assay type: functional;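 further: rate of fluorescence rise from hydrolysis of a fluorogenic O-methyl fluorescein ester substrate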
[3] = biological target: T2, Calpain-2 catalytic subunit (Sus scrofa, UniProt P43367); assay: m-calpain protease blockers, concentration series – biochemical, fluorogenic peptide substrate, dose response (AID 1420); assay type: functional
T2 sequence (P43367 whole entry): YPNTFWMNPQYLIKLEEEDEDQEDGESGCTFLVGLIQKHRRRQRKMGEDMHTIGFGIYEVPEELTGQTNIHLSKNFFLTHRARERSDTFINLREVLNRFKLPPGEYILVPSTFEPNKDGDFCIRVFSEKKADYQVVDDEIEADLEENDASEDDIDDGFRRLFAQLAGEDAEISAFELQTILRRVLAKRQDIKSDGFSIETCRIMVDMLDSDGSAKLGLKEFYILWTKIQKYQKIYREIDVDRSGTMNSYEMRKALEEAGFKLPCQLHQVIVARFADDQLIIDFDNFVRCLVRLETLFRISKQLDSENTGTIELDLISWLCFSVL

[4] = biological target: T3, Polyadenylate-binding protein 1 (Homo sapiens, UniProt P11940); assay: MLLE binding blockers, Cy5 peptide tracer – biochemical, fluorescence polarization, Cy5-PAM2 peptide, secondary, miRNA deadenylation inhibitor project, dose response (AID 602260); assay type: functional; details: read-out: IC50_Mean
[5] = biological target: T3, Polyadenylate-binding protein 1; assay: MLLE domain peptide-binding blockers, IC50 – biochemical, fluorescence polarization, FITC-PAM2 peptide, dose response (AID 602259); assay type: functional; details: read-out: IC50_Mean
Genome polyprotein = Genome polyprotein (dengue virus type 2, UniProt P29990); assay: flavivirus cap methylation enzyme inhibition – biochemical, confirmation dose response, primary screen (AID 588689); assay type: functional
[6] = biological target: T4, Ubiquitin-conjugating enzyme E2 N (Homo sapiens, UniProt P61088); assay type: functional;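 further: Dose-response confirmation in a TR-FRET assay detecting UBC13-driven polyubiquitin chain formation, inhibition measured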
T4 sequence (P61088 whole entry): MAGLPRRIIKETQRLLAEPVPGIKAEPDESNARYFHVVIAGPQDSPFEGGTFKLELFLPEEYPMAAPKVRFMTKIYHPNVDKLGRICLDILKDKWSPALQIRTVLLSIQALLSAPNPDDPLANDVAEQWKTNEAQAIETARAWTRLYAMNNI

[7] = P. falciparum Dd2 growth inhibitors, dose response, SYBR Green, cherry-picked samples (AID 1159567); assay type: functional, cell-based
[8] = intracellular Trypanosoma cruzi inhibitors in host cells – cell-based, plate reader, cherry-pick samples, set 3, dose response (AID 651818); assay type: functional;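 further: compounds incubated with infected cells for about four days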
[9] = viability of PTEN-deleted HCT116 cells – cell-based, HCT116 PTEN knockout, dose response (AID 1047); assay type: functional;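 further: HCT116 colon tumor cells with PTEN knocked out; cells exposed to compound for 60 hours before readout; potency for loss of cell viability measured by luminescence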
[10] = viability of HCT116 lacking mutant beta-catenin – cell-based, human colon tumor, dose response (AID 1045); assay type: functional;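 further: HCT116 colon tumor cells with beta catenin knocked out; cells exposed to compound for 60 hours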
cells [11] = assay type: functional, cell-based
cells [12] = assay type: functional, cell-based; remark: listed apart in the source
[13] = HIV-1 AD8 envelope cell-cell fusion blockers – cherry-pick, dose response (AID 652062); assay type: functional, cell-based;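 further: luciferase signal from cell-cell fusion driven by HIV-1 clade B AD8 Env; potency is for inhibitors of fusion seen as a drop in luminescence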
[14] = biological target: Induced myeloid leukemia cell differentiation protein Mcl-1 (Homo sapiens, UniProt Q07820); assay type: functional
[15] = test system: Streptococcus sp. 'group A'; assay: Streptococcus pyogenes SK(-)GAS viability under kanamycin – luminescence, BacTiterGlo, confirmation, counter-screen for streptokinase expression inhibitor project, dose response (AID 1900); assay type: functional, organism-based
Streptokinase A = biological target: T5, Streptokinase A (Streptococcus pyogenes serotype M1, UniProt P10520); assay: viability-normalized secreted streptokinase activity reduction – plasminogen activation absorbance, OD405, dose response (AID 1914); assay type: functional, Streptococcus pyogenes M1 GAS;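 further: secreted streptokinase activity via plasminogen activation per viability signal from cell pellet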
T5 sequence (P10520 whole entry): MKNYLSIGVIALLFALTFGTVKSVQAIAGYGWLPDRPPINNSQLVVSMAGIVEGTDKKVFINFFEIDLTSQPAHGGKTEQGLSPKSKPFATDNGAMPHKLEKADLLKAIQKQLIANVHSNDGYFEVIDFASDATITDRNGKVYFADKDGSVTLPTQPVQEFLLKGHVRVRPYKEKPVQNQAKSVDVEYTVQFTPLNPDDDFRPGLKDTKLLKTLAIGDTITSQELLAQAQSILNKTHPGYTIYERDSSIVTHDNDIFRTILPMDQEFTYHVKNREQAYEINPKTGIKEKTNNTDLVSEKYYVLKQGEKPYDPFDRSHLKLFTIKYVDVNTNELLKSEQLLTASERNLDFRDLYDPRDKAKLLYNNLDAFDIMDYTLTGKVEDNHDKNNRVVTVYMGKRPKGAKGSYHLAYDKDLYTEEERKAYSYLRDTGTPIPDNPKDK

Streptococcus = assay: GAS UMAA2166 growth inhibition – luminescence, BacTiterGlo, counter-screen for streptokinase expression inhibitor project, dose response (AID 1915); assay type: functional, organism-based;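 further: potency for reduction of bacterial viability or growth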

T3 sequence (P11940 whole entry, the tested form may be a part): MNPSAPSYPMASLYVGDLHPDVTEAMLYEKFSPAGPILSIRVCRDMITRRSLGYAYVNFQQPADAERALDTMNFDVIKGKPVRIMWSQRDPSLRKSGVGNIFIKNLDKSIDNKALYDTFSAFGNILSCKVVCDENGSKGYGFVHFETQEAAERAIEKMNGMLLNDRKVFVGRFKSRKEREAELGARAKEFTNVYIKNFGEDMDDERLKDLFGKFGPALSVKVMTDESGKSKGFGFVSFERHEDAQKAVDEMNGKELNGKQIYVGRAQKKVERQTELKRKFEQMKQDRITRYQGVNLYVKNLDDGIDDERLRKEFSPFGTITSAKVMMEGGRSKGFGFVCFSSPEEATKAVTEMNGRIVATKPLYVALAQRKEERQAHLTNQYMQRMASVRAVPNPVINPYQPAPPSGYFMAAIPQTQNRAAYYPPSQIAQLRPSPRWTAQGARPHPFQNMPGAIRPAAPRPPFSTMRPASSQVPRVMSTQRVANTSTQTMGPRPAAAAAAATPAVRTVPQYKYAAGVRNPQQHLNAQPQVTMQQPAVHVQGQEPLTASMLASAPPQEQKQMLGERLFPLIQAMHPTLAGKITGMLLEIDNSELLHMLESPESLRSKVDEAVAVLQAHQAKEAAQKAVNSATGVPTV
Chain of Genome polyprotein (P29990 2492-3391 limits assumed): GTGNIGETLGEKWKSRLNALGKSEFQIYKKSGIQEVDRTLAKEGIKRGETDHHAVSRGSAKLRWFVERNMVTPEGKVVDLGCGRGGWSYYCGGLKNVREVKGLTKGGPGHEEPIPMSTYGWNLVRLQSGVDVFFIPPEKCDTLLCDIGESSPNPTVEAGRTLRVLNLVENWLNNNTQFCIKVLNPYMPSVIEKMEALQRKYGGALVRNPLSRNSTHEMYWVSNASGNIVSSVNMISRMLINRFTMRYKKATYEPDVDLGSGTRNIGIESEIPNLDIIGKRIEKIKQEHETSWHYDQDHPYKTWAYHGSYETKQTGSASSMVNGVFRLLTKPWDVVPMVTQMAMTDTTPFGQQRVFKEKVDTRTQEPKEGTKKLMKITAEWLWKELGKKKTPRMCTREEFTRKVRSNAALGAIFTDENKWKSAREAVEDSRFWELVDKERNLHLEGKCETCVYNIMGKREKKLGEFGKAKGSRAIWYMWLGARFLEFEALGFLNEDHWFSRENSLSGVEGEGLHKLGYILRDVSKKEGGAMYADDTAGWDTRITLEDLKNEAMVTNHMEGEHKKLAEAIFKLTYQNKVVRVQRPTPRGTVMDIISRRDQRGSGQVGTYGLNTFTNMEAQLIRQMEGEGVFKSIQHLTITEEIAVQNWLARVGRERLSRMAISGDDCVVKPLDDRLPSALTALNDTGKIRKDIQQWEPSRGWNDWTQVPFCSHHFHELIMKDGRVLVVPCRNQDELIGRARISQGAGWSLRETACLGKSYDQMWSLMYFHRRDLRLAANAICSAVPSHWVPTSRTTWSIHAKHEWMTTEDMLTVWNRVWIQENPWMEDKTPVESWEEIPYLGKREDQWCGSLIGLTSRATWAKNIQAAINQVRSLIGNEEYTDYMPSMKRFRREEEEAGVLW
T1 sequence (P49327 whole entry): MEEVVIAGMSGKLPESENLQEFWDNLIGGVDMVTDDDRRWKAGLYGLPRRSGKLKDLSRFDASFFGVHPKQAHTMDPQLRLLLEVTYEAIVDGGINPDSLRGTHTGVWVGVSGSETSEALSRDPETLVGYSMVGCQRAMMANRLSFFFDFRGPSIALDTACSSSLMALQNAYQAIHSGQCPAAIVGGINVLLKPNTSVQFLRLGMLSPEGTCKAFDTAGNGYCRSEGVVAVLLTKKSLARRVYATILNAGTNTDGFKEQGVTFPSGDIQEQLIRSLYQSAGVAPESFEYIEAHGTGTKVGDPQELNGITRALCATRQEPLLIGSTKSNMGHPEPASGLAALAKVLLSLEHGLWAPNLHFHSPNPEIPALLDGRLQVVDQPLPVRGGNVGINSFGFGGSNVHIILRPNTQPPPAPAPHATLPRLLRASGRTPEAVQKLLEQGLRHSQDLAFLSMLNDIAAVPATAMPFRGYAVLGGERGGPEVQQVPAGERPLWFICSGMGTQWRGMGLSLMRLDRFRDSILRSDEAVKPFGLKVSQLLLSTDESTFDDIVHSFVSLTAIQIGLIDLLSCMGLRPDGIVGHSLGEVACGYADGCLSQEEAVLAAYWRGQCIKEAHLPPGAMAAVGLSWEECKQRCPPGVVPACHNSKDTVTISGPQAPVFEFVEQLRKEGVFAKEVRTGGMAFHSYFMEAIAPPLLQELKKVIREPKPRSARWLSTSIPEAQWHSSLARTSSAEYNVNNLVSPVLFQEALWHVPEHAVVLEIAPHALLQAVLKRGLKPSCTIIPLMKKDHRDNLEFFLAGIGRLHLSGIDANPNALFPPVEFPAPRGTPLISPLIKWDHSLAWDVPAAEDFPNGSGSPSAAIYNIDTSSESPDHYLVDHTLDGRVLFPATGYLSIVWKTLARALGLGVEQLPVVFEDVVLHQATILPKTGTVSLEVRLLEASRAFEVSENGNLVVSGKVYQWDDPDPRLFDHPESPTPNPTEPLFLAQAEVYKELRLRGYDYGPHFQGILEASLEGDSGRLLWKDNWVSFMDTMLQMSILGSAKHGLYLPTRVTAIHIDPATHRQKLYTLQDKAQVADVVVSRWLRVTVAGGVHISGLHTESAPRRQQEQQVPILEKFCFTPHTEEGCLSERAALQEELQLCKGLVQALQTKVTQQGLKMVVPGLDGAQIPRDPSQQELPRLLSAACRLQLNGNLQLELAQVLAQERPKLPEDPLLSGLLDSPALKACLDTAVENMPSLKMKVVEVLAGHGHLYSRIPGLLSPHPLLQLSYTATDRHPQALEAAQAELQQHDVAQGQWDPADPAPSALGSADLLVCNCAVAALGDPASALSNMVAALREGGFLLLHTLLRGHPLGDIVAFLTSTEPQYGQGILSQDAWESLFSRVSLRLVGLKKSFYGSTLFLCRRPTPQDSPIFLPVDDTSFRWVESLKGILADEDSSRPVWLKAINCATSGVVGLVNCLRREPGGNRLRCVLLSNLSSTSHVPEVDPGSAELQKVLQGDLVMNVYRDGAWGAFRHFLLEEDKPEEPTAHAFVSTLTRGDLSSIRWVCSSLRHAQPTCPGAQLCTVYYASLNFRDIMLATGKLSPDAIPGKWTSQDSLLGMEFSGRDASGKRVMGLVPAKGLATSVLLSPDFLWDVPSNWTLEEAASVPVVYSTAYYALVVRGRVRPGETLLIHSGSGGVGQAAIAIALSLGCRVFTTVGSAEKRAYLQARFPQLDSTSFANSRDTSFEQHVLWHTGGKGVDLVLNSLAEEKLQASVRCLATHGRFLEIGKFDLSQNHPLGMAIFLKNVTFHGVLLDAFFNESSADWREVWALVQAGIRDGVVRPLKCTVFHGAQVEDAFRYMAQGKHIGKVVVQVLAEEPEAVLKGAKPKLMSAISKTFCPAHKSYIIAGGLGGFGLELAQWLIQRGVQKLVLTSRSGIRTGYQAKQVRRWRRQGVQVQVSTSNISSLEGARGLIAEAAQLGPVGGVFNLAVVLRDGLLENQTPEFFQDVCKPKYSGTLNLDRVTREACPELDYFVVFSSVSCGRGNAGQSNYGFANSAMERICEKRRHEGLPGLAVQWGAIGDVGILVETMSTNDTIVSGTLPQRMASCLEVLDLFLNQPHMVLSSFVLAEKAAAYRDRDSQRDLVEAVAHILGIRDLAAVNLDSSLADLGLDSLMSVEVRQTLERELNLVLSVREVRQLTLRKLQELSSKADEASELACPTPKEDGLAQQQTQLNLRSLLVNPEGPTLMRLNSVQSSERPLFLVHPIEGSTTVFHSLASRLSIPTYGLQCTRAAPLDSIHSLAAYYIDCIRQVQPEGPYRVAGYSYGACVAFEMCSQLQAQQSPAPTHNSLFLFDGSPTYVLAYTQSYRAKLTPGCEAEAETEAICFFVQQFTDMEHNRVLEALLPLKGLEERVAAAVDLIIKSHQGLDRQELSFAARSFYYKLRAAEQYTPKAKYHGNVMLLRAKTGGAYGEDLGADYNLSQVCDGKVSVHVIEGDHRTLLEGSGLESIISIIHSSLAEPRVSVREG
Chain of Induced myeloid leukemia cell differentiation protein Mcl-1 (Q07820 whole entry): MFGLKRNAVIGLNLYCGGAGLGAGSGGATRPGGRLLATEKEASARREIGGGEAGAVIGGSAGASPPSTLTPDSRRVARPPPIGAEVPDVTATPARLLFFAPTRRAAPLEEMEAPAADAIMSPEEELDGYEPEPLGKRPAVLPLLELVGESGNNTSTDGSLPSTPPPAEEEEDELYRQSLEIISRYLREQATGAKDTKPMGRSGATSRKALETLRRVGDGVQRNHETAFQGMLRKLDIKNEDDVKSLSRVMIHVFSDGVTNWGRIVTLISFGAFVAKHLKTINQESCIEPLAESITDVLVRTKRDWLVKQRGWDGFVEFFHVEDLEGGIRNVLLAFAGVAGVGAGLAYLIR

SMILES: COc1cccc(NC(C)C(=O)Nc2cc([N+](=O)[O-])ccc2Cl)c1 (centres undefined)
- IC50 (Fatty acid synthase [1]): 9.92 µM (active)
- IC50 (Fatty acid synthase [2]): 12.4 µM (active)

SMILES: Cc1cc(NC(=O)CSc2nc3sc4c(c3c(=O)n2C)CCCC4)no1
- IC50 [3]: 25.2 µM (not active)

SMILES: CCOCCCn1c(=N)c(S(=O)(=O)c2ccc(C)cc2)cc2c(=O)n3cc(C)ccc3nc21
- IC50 [4]: > 66 µM (inactive)
- IC50 [5]: 53.1 µM (inactive)

SMILES: Cc1onc(-c2c(F)cccc2Cl)c1C(=O)NC(=S)NC1CCSC1=O (centres undefined)
- IC50 [4]: > 66 µM (inactive)
- IC50 [5]: > 66 µM (inactive)

SMILES: N#C/C(=C\c1cccs1)C(=O)c1ccccc1
- IC50 (Genome polyprotein): > 100 µM (active)

SMILES: CC(C)(C)c1ccc(OCCC(=O)OCC(=O)N2c3ccccc3NC(=O)C2(C)C)cc1
- IC50 (Fatty acid synthase [1]): 11.2 µM (active)
- IC50 (Fatty acid synthase [2]): 4.48 µM (active)

SMILES: COC(=O)C1=C(C)N(CC2CC2)C(NCc2cccc(C(F)(F)F)c2)=N[C@H]1c1ccccc1
- IC50 [6]: > 20 µM (inactive)

SMILES: CO[C@H]1CN(C)C(=O)c2ccc(NC(=O)c3nc4ccccc4s3)cc2OC[C@H](C)N(Cc2ccncc2)C[C@@H]1C
- AC50 [7]: 5.3 µM (active)

SMILES: CC(NC(=O)Cn1cc([N+](=O)[O-])cn1)c1ccc(C(C)(C)C)cc1 (centres undefined)
- IC50 (Fatty acid synthase [1]): 4.06 µM (active)
- IC50 (Fatty acid synthase [2]): 4.54 µM (active)

SMILES: CCO[C@H]1OC(C(=O)NCc2ccccc2)=C[C@@H](C2CCCCC2)[C@@H]1CCCO
- IC50 (Fatty acid synthase [1]): 7.45 µM (active)
- IC50 (Fatty acid synthase [2]): 11.5 µM (active)

SMILES: C[C@@H]1CN([C@H](C)CO)C(=O)c2cc(NC(=O)Cc3cn(C)c4ccccc34)ccc2O[C@@H]1CN(C)C(=O)Nc1ccc(C(F)(F)F)cc1
- AC50 [8]: 3.26 µM (active)

SMILES: COc1ccccc1/C=C(\NC(=O)c1ccc(OC)c(OC)c1)C(=O)Nc1cc([N+](=O)[O-])ccc1C
- EC50 [9]: 43.6 µM (active)
- EC50 [10]: 44.4 µM (active)
- IC50 (Fatty acid synthase [1]): 2.16 µM (active)
- IC50 (Fatty acid synthase [2]): 3.48 µM (active)

SMILES: Oc1nncc(N/N=C\c2cccs2)c1Cl
- IC50 (cells [11]): > 29.9 µM (inactive)
- EC50 (cells [12]): > 29.9 µM (inactive)

SMILES: O=C1c2cccc3cccc(c23)C(=O)N1CCCN1CCN(c2ccc(F)cc2)CC1
- IC50 [3]: 8.84 µM (not active)

SMILES: Cc1c(N2C(=O)/C(=C3\C(=O)N(CC(=O)O)c4ccccc43)SC2=S)c(=O)n(-c2ccccc2)n1C
- IC50 [4]: > 66 µM (inactive)
- IC50 [5]: > 66 µM (inactive)

SMILES: COc1ccc(NC(=O)C2(C)CCN2Cc2ccccc2OC(F)F)cc1OC (centres undefined)
- AC50 [13]: 55.5 µM (active)

SMILES: O=C(c1nc2ccccn2c1CN1CCCC(O)C1)N1CCN(C2CCCCC2)CC1 (centres undefined)
- IC50 [4]: > 66 µM (inactive)
- IC50 [5]: > 66 µM (inactive)

SMILES: O=C(O)c1ccccc1SC1CC(=O)N(c2ccc3c(c2)OCO3)C1=O (centres undefined)
- IC50 [4]: > 66 µM (inactive)
- IC50 [5]: > 66 µM (inactive)

SMILES: Cc1ccc2c(c1)C(c1ccccc1)N(C(=O)c1cccc([N+](=O)[O-])c1)CC(=O)N2 (centres undefined)
- IC50 (Fatty acid synthase [1]): 2.57 µM (active)
- IC50 (Fatty acid synthase [2]): 2.53 µM (active)

SMILES: COc1cccc(CNc2ccc(F)c([N+](=O)[O-])c2)c1O
- IC50 [3]: 7.78 µM (active)

SMILES: CC[C@@H](C)[C@@H]1CN([C@@H](CN2CCC[C@H]2CN2C(N)=NC[C@H]2C(C)C)C(C)C)C(=N)N1CCCC1CCCC1
- IC50 [6]: > 20 µM (inactive)

SMILES: COc1ccccc1C(=O)COC(=O)c1cc([N+](=O)[O-])ccc1N1CCOCC1
- IC50 (Fatty acid synthase [1]): 5.96 µM (active)
- IC50 (Fatty acid synthase [2]): 6.45 µM (active)

SMILES: COc1ccc2c3c([nH]c2c1)[C@H](CO)N(Cc1cc(F)ccc1F)CC31CCN(C(C)=O)CC1
- AC50 [7]: 3.39 µM (active)

SMILES: O=C1NC(=S)N(c2ccccc2F)C(=O)/C1=C\c1cccs1
- IC50 [14]: 2.07 µM (active)
- IC50 (Genome polyprotein): 70.3 µM (active)

SMILES: C[C@H]1CN([C@@H](C)CO)C(=O)c2cc(N(C)C)ccc2O[C@@H]1CN(C)C(=O)Nc1ccc(C(F)(F)F)cc1
- AC50 [8]: 5.64 µM (active)

SMILES: COc1ccc(S(=O)(=O)N(C)C[C@H]2Oc3ccc(NS(=O)(=O)c4ccc(F)cc4)cc3CC(=O)N([C@H](C)CO)C[C@H]2C)cc1
- AC50 [8]: 8.25 µM (active)

SMILES: O=C(N/N=C/c1cc(I)cc(I)c1O)c1ccccn1
- AC50 [8]: 1.12 µM (active)

SMILES: CCCNC(=O)N1CC(=O)N2[C@@H](CO)[C@@H](c3ccc(C#Cc4cccc(OC)c4)cc3)[C@@H]2C1
- AC50 [7]: 17 µM (active)

SMILES: C[C@@H]1CN([C@H](C)CO)C(=O)Cc2cc(NS(=O)(=O)c3ccc(F)cc3)ccc2O[C@H]1CN(C)Cc1ccc(C(=O)Nc2ccccc2N)cc1
- AC50 [8]: 3.17 µM (active)

SMILES: O=C(/C=C/c1cccc([N+](=O)[O-])c1)NCCSCc1ccc(Cl)cc1
- IC50 (Fatty acid synthase [1]): 10.2 µM (active)
- IC50 (Fatty acid synthase [2]): 11.6 µM (active)

SMILES: COc1ccc2c3c(n(C)c2c1)[C@H](CO)N(C(=O)Nc1cccc(F)c1)CC31CN(C)C1
- AC50 [7]: 5.83 µM (active)

SMILES: COc1cc(/C=C2/SC(NS(=O)(=O)Cc3ccccc3)=NC2=O)c([N+](=O)[O-])cc1OC
- IC50 (Genome polyprotein): 76.1 µM (active)

SMILES: C[C@@H]1CN([C@@H](C)CO)C(=O)c2cccc(NC(=O)CCCCCC(=O)Nc3ccccc3N)c2O[C@@H]1CN(C)S(=O)(=O)c1ccc(Cl)cc1
- AC50 [8]: 3.26 µM (active)

SMILES: COc1ccc(C2=NN(C(=O)CSc3nc(=O)n4ccc(C)cc4n3)C(c3ccc(C)cc3)C2)cc1 (centres undefined)
- IC50 (Fatty acid synthase [1]): 9.17 µM (active)
- IC50 (Fatty acid synthase [2]): 8.93 µM (active)

SMILES: Cc1cc2c(C)ccc(C)c2nc1SCC(=O)c1cccs1
- IC50 [3]: < 0.4 µM (not active)

SMILES: C[C@@H]1CN([C@H](C)CO)C(=O)c2c(c3ccccc3n2C)-c2ccccc2CO[C@H]1CN(C)Cc1ccc(Oc2ccccc2)cc1
- AC50 [7]: 3.03 µM (active)

SMILES: COC(=O)Nc1ccc(SCC(=O)c2cccc([N+](=O)[O-])c2)cc1
- IC50 [4]: > 66 µM (inactive)
- IC50 [5]: > 66 µM (inactive)

SMILES: COc1ccc2c3c([nH]c2c1)[C@@H](CO)N(Cc1ccccc1F)CC31CN(C(=O)C2CCCC2)C1
- AC50 [7]: 6.64 µM (active)

SMILES: Cc1c(C(=O)NC(=S)Nc2ccc3c4c(cccc24)CC3)cccc1[N+](=O)[O-]
- IC50 [4]: > 66 µM (inactive)
- IC50 [5]: > 66 µM (inactive)

SMILES: C[C@@H]1CCCCO[C@@H](CN(C)C(=O)Nc2ccc(C(F)(F)F)cc2)[C@@H](C)CN([C@H](C)CO)C(=O)c2cc(NC(=O)Nc3ccc(C(F)(F)F)cc3)ccc2O1
- AC50 [8]: 3.39 µM (active)

SMILES: C[C@@H]1CN([C@H](C)CO)C(=O)Cc2cc(NC(=O)Nc3cccc4ccccc34)ccc2O[C@@H]1CN(C)Cc1ccc(Cl)c(Cl)c1
- AC50 [8]: 2.53 µM (active)

SMILES: CCCCn1c(S)nnc1-c1csc(CCC)c1
- IC50 [3]: 24.1 µM (not active)

SMILES: CCC[C@@H](CN1CCC[C@H]1CN1C(N)=NC[C@H]1C(C)C)N1C[C@@H]([C@H](C)CC)N(CCCC2CCCC2)C1=N
- IC50 [6]: > 20 µM (inactive)

SMILES: COc1ccccc1N1CCN(C(=O)[C@H](C)NS(=O)(=O)c2ccc3c(c2)OCCCO3)CC1
- IC50 [4]: > 66 µM (inactive)
- IC50 [5]: > 66 µM (inactive)

SMILES: COCCNC(=O)c1c(NC(=O)c2ccco2)n(Cc2ccccc2)c2nc3ccccc3nc12
- EC50 [15]: 12.8 µM (active)
- EC50 (Streptokinase A): > 150 µM (not active)
- EC50 (Streptococcus): > 150 µM (not active)
- IC50 (Genome polyprotein): > 100 µM (active)
